Data: ChEMBL document CHEMBL4507292 (2021)

Legend:
[1] = molecular target: Tyrosine-protein kinase ABL1 (Homo sapiens) (UniProt P00519); details: Compound concentration 1000.0 nM
[2] = molecular target: Activin receptor type-1-like (Homo sapiens) (UniProt P37023); details: Compound concentration 1000.0 nM
[3] = molecular target: RAC-beta serine/threonine-protein kinase (Homo sapiens) (UniProt P31751); details: Compound concentration 1000.0 nM
[4] = molecular target: Tyrosine-protein kinase receptor UFO (Homo sapiens) (UniProt P30530); details: Compound concentration 1000.0 nM
[5] = molecular target: Bone morphogenetic protein receptor type-1A (Homo sapiens) (UniProt P36894); details: Compound concentration 1000.0 nM
[6] = molecular target: Bone morphogenetic protein receptor type-1B (Homo sapiens) (UniProt O00238); details: Compound concentration 1000.0 nM
[7] = molecular target: Calcium/calmodulin-dependent protein kinase type 1D (Homo sapiens) (UniProt Q8IU85); details: Compound concentration 1000.0 nM
[8] = molecular target: Cyclin-dependent kinase 13 (Homo sapiens) (UniProt Q14004); details: Compound concentration 1000.0 nM
[9] = molecular target: Cyclin-dependent kinase 9 (Homo sapiens) (UniProt P50750); details: Compound concentration 1000.0 nM
[10] = molecular target: Serine/threonine-protein kinase Chk1 (Homo sapiens) (UniProt O14757); details: Compound concentration 1000.0 nM
[11] = molecular target: Citron Rho-interacting kinase (Homo sapiens) (UniProt O14578); details: Compound concentration 1000.0 nM
[12] = molecular target: Dual specificity protein kinase CLK1 (Homo sapiens) (UniProt P49759); details: Compound concentration 1000.0 nM
[13] = molecular target: Mitogen-activated protein kinase 4 (Homo sapiens) (UniProt P31152); details: Compound concentration 1000.0 nM
[14] = tested on: Receptor-type tyrosine-protein kinase FLT3 (Homo sapiens), P36888 [UNDEFINED MUTATION]; details: Compound concentration 1000.0 nM
[15] = tested on: Receptor-type tyrosine-protein kinase FLT3 (Homo sapiens), P36888 [N841I]; details: Compound concentration 1000.0 nM
[16] = molecular target: Rhodopsin kinase GRK7 (Homo sapiens) (UniProt Q8WTQ7); details: Compound concentration 1000.0 nM
[17] = molecular target: Insulin-like growth factor 1 receptor (Homo sapiens) (UniProt P08069); details: Compound concentration 1000.0 nM
[18] = molecular target: Tyrosine-protein kinase JAK3 (Homo sapiens) (UniProt P52333); details: Compound concentration 1000.0 nM
[19] = molecular target: Mitogen-activated protein kinase kinase kinase 13 (Homo sapiens) (UniProt O43283); details: Compound concentration 1000.0 nM
[20] = molecular target: Mitogen-activated protein kinase kinase kinase 15 (Homo sapiens) (UniProt Q6ZN16); details: Compound concentration 1000.0 nM
[21] = molecular target: Mitogen-activated protein kinase kinase kinase kinase 5 (Homo sapiens) (UniProt Q9Y4K4); details: Compound concentration 1000.0 nM
[22] = molecular target: Macrophage-stimulating protein receptor (Homo sapiens) (UniProt Q04912); details: Compound concentration 1000.0 nM
[23] = molecular target: Myosin-IIIb (Homo sapiens) (UniProt Q8WXR4); details: Compound concentration 1000.0 nM
[24] = molecular target: Platelet-derived growth factor receptor alpha (Homo sapiens) (UniProt P16234); details: Compound concentration 1000.0 nM
[25] = molecular target: Phosphatidylinositol 4,5-bisphosphate 3-kinase catalytic subunit delta isoform (Homo sapiens) (UniProt O00329); details: Compound concentration 1000.0 nM
[26] = molecular target: Phosphatidylinositol 4-kinase beta (Homo sapiens) (UniProt Q9UBF8); details: Compound concentration 1000.0 nM
[27] = molecular target: cAMP-dependent protein kinase catalytic subunit beta (Homo sapiens) (UniProt P22694); details: Compound concentration 1000.0 nM
[28] = molecular target: Serine/threonine-protein kinase PRP4 homolog (Homo sapiens) (UniProt Q13523); details: Compound concentration 1000.0 nM
[29] = molecular target: Serine/threonine-protein kinase RIO2 (Homo sapiens) (UniProt Q9BVS4); details: Compound concentration 1000.0 nM
[30] = molecular target: Ribosomal protein S6 kinase alpha-1 (Homo sapiens) (UniProt Q15418); details: Compound concentration 1000.0 nM
[31] = molecular target: Serine/threonine-protein kinase Sgk2 (Homo sapiens) (UniProt Q9HBY8); details: Compound concentration 1000.0 nM
[32] = molecular target: Tyrosine-protein kinase SYK (Homo sapiens) (UniProt P43405); details: Compound concentration 1000.0 nM
[33] = molecular target: Serine/threonine-protein kinase WNK3 (Homo sapiens) (UniProt Q9BYP7); details: Compound concentration 1000.0 nM
D(1A) dopamine receptor = D(1A) dopamine receptor (Homo sapiens, UniProt P21728); details: Compound concentration 10.0 uM
[34] = molecular target: T1, Muscarinic acetylcholine receptor M5 (Homo sapiens) (UniProt P08912); details: Compound concentration 10.0 uM
T1 sequence (whole entry): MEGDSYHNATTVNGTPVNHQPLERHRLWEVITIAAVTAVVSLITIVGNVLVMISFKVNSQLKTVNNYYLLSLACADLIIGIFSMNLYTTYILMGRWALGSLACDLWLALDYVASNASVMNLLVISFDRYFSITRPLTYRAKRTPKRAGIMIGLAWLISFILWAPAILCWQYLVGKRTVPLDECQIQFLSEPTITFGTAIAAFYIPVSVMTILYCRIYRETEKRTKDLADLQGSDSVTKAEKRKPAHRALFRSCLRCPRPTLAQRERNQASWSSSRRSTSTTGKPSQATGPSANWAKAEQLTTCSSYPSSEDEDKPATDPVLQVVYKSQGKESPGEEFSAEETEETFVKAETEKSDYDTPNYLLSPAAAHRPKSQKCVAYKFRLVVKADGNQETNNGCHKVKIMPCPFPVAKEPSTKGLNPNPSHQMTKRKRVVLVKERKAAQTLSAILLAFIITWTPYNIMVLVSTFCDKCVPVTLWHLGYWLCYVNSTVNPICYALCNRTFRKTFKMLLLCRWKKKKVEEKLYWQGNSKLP

[35] = molecular target: GABA-A receptor; anion channel (Rattus norvegicus) (UniProt O09028+P15431+P18506+P18508+P19969+P20236+P23574+P23576+P28471+P28473+P30191+P62813+P63079+P63138+Q91ZM7+Q9ES14); details: Compound concentration 10.0 uM

Chain of Serine/threonine-protein kinase WNK3 (Homo sapiens) (Q9BYP7 whole entry): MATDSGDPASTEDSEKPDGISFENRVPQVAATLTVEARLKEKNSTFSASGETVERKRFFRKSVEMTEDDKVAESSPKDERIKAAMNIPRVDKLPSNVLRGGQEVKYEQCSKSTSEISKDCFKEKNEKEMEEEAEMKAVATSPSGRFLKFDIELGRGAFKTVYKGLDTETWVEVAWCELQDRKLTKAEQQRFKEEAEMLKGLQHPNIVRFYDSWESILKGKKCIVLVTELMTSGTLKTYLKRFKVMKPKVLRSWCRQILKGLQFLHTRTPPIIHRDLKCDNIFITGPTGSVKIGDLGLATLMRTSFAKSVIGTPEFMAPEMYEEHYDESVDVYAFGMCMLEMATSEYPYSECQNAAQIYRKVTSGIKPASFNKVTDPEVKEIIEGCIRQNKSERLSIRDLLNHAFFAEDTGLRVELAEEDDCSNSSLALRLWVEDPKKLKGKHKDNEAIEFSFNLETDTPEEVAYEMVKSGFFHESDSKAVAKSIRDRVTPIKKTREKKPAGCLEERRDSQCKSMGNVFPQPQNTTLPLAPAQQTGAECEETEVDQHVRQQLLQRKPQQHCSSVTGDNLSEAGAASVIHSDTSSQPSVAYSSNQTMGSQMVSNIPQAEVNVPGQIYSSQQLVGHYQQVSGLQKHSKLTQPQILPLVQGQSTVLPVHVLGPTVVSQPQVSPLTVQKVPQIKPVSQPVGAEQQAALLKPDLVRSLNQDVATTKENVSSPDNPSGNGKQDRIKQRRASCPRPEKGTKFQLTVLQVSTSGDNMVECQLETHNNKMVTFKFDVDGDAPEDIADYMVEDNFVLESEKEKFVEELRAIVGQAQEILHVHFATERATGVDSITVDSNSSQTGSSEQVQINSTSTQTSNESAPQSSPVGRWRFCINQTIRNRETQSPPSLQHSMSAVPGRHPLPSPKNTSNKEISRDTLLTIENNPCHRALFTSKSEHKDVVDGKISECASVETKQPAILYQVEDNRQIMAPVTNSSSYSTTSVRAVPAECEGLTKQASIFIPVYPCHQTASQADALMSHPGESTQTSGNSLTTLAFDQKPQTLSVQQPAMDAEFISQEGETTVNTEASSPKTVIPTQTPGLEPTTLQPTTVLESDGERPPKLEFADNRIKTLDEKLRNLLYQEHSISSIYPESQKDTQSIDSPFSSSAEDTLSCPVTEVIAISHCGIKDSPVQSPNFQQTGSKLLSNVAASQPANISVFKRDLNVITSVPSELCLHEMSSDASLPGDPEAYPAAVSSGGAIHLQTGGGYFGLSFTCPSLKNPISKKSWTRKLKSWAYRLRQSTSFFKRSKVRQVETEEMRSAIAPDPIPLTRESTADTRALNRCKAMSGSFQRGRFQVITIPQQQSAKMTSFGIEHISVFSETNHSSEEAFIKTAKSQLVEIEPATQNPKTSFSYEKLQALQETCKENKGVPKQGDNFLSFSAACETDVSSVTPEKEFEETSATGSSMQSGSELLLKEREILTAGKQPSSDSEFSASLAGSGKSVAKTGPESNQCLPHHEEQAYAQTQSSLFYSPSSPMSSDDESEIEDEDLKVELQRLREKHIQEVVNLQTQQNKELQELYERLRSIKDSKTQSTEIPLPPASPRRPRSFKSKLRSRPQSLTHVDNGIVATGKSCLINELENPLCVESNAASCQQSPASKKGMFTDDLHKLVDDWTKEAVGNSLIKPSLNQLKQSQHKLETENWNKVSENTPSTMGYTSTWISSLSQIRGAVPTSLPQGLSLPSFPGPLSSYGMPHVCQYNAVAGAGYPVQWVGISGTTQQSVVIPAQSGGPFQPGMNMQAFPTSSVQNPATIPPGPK
Chain of Myosin-IIIb (Homo sapiens) (Q8WXR4 whole entry): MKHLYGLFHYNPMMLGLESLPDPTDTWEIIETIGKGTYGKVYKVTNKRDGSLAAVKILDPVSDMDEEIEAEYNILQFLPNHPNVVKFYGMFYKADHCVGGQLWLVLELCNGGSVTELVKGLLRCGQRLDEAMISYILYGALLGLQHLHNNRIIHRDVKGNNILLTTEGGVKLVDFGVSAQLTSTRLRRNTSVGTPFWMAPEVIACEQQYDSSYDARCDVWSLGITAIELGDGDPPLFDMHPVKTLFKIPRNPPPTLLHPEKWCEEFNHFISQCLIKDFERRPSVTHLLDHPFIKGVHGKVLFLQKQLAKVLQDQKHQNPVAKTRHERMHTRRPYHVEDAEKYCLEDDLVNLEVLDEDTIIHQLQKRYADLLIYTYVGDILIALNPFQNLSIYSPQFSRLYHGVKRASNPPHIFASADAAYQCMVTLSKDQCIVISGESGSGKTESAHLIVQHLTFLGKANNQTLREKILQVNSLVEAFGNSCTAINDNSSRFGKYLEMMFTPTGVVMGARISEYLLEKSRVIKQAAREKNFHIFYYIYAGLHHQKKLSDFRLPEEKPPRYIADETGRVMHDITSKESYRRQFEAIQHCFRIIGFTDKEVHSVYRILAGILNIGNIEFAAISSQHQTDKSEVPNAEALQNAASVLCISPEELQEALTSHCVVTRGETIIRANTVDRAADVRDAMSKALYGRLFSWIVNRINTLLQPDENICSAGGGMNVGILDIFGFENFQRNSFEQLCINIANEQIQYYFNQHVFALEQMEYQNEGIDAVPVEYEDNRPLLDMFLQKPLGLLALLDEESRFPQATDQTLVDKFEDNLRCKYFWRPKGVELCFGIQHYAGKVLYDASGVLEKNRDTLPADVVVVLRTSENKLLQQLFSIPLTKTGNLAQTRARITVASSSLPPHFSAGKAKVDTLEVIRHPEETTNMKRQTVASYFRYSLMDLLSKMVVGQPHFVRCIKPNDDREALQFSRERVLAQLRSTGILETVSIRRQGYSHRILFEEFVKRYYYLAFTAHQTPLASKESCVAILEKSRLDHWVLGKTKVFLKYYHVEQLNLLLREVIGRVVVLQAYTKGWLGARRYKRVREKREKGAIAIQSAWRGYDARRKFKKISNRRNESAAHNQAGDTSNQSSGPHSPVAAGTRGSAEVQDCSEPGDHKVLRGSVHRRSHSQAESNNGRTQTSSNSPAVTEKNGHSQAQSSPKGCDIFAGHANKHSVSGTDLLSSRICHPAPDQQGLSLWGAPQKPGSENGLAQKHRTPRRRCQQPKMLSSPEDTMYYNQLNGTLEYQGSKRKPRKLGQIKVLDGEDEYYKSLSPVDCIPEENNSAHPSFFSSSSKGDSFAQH
Chain of Platelet-derived growth factor receptor alpha (Homo sapiens) (P16234 whole entry, canonical isoform): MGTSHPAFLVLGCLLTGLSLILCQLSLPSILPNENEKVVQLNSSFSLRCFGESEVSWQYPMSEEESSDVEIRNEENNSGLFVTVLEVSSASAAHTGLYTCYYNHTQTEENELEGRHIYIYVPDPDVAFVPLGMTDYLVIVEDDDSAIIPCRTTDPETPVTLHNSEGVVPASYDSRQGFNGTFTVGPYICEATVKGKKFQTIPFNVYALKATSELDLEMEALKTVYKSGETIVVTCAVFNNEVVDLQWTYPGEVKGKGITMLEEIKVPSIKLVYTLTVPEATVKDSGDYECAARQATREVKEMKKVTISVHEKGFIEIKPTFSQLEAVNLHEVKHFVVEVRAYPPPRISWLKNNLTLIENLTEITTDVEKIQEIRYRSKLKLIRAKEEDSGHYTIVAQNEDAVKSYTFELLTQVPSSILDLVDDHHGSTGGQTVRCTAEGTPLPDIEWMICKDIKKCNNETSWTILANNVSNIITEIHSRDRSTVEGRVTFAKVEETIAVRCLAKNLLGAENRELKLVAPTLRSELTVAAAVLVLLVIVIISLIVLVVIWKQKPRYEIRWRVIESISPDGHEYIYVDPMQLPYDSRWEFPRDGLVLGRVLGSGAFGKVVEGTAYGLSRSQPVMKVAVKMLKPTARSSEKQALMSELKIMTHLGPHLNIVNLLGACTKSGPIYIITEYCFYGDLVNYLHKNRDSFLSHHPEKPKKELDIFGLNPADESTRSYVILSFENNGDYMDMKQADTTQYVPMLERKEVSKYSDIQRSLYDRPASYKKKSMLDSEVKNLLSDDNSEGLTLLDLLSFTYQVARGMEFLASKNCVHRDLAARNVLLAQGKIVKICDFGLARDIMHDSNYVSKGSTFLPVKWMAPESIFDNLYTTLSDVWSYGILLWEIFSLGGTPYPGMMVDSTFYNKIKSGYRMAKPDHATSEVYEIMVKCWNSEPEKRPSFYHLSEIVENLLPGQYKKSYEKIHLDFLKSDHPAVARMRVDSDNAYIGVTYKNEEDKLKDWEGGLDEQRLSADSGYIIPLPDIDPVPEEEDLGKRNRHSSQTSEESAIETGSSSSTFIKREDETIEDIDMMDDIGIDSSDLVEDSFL
Chain of Activin receptor type-1-like (Homo sapiens) (P37023 whole entry): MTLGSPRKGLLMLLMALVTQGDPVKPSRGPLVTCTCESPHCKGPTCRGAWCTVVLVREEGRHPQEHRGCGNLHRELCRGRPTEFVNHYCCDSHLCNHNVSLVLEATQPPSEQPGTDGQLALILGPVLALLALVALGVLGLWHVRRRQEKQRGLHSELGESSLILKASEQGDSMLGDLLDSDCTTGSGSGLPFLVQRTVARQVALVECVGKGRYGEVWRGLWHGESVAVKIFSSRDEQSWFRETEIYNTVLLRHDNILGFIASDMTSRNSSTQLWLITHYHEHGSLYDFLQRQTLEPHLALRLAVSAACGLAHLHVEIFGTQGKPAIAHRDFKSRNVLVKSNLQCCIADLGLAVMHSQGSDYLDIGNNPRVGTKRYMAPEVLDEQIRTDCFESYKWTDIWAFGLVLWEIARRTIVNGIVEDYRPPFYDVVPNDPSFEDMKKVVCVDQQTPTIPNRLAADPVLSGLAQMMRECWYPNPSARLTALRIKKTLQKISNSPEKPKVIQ
Chain of Serine/threonine-protein kinase Sgk2 (Homo sapiens) (Q9HBY8 whole entry): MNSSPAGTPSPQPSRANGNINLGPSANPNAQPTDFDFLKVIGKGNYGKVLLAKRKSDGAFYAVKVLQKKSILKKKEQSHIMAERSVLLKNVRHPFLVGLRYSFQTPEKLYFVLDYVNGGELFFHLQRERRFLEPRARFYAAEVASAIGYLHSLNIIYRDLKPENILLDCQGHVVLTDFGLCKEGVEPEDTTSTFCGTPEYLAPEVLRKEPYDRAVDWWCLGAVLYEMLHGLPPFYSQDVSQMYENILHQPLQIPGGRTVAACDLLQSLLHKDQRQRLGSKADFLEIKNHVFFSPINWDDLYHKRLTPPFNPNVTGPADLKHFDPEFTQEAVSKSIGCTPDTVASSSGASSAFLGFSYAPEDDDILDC

`Cc1c(C(=O)O)cc(-c2ccc(C3CCNCC3)cc2)c2ccc(-c3ccc(C(F)(F)F)cc3)cc12` [PPTN-NC] gave a residual activity [1] of 82%, a residual activity [2] of 100% and a residual activity [3] of 100%. For the same compound, the residual activity [4] was 100%, the residual activity [5] was 100% and the residual activity [6] was 100%. The residual activity [7] was 100%, the residual activity [8] was 100% and the residual activity [9] was 100%. The residual activity [10] was 100%, the residual activity [11] was 100% and the residual activity [12] was 100%. The residual activity [13] was 100%, the residual activity [14] was 95% and the residual activity [15] was 100%. For the same compound, the residual activity [16] was 91%, the residual activity [17] was 90% and the residual activity [18] was 100%. It also gave a residual activity [19] of 100%, a residual activity [20] of 100% and a residual activity [21] of 100%. The residual activity [22] was 100%, the residual activity [23] was 75% and the residual activity [24] was 100%. The residual activity [25] was 100%, the residual activity [26] was 100% and the residual activity [27] was 84%. For the same compound, the residual activity [28] was 100%, the residual activity [29] was 100% and the residual activity [30] was 100%. The residual activity [31] was 100%, the residual activity [32] was 100% and the residual activity [33] was 100%. For the same compound, the inhibition (D(1A) dopamine receptor) was 61.4%, the inhibition [34] was 10.1% and the inhibition [35] was 10.6%.
`O=C(O)c1cc(-c2ccc(C3CCNCC3)cc2)c2ccc(-c3ccc(C(F)(F)F)cc3)cc2c1` [PPTN] showed a residual activity [1] of 75%, a residual activity [2] of 100% and a residual activity [3] of 95%. It also gave a residual activity [4] of 100%, a residual activity [5] of 100% and a residual activity [6] of 100%. The residual activity [7] was 100%, the residual activity [8] was 100% and the residual activity [9] was 100%. The residual activity [10] was 100%, the residual activity [11] was 100% and the residual activity [12] was 100%. For the same compound, the residual activity [13] was 100%, the residual activity [14] was 100% and the residual activity [15] was 100%. The residual activity [16] was 85%, the residual activity [17] was 95% and the residual activity [18] was 100%. For the same compound, the residual activity [19] was 100%, the residual activity [20] was 99% and the residual activity [21] was 100%. For the same compound, the residual activity [22] was 100%, the residual activity [23] was 69% and the residual activity [24] was 100%. The residual activity [25] was 98%, the residual activity [26] was 100% and the residual activity [27] was 100%. The residual activity [28] was 100%, the residual activity [29] was 100% and the residual activity [30] was 100%. It also gave a residual activity [31] of 100%, a residual activity [32] of 100% and a residual activity [33] of 100%. For the same compound, the inhibition (D(1A) dopamine receptor) was 71.4%, the inhibition [34] was 10.1% and the inhibition [35] was -3.62%.
